The text below walks through data of patent publication US20080098491A1, “MOUSE MODELS TO STUDY CACHEXIA” (ZOLTAN LABORATORIES LLC, priority 2006, published 2008).

For test [1], the system named is MXT mouse mammary tumor. Briefly: Cisplatin-treated MXT mouse mammary tumor model, CCDTHT (Example 10). It counts as in vivo. The note with it: with cisplatin 3-mg/kg i.p. An excerpt: (§1) The B16 mouse melanoma and MXT mouse mammary tumors were developed in first generation hybrid BDF1 (C57 B1 female×DBA/2 male) adult female mice kept at specified pathogen free (SPF) hygienic level. These models were chosen for these experiments because these mice have the complete immune system, and both tumors grow very rapidly. To develop the tumors, B16 and MXT tumor tissue fragments of about 0.1-cm^3 were surgically implanted subcutaneously into the intrascapular region to develop the tumors. Each tumor fragment contained about 1-1.5×10^6 cells. The animals were kept in macrolon cages on ventilated rack at 22-24° C. (50-60% humidity) with lighting regimen of 12/12 h light/dark. The animals had free access to tap water and were fed with sterilized standard diet (Charles River VRF1, Germany) ad libitum. The animals were taken care of according to the “Guiding Principle for the care and use of Animals” based upon the Helsinki declaration and they were approved by the local ethical committee.
(§2) In case of both tumor models the tumor size was usually in the range of 0.2 to 0.5-g when treatments started 7-11 days after tumor implantation; the mice were selected so that in the same treatment group the difference in tumor size was no greater than 0.1 gram. In some experiments, the test proteins were suspended in physiological saline and injected in 50-μl volume subcutaneously in the vicinity of tumor (within 1-cm of tumor margin). In other experiments, the test proteins were dispersed in Vaselinum cholesteratum and used topically; 150-mg cream was applied on the tumor and the vicinity of tumor area (with about 0.5-cm of the tumor margin). The tumor volume was determined by using calipers; this technique is well known to one having ordinary skill in the art. Tumor volume was calculated according to the generally accepted formula: V=a^2×b×7r/6, where “a” and “b” mean the shortest and longest diameter, respectively, of the measured tumor.
The mouse MXT mammary tumor was developed as described in Example 3. In the first group, animals remained untreated during the whole observation period. In the second group, starting on the 7th day after tumor implantation, mice were administered 3-mg per 1-kg of cisplatin i.p. 9-times every second day. In the third group, starting on the 7th day after tumor implantation, mice were simultaneously administered 3-mg per 1-kg of cisplatin i.p. and 4.6-mg per 1-kg of CCDTHT s.c. In the fourth group, starting on the 7th day after tumor implantation, mice were simultaneously administered 3-mg per 1-kg of cisplatin i.p. as well as 4.6-mg per 1-kg of CCDTHT s.c. and 14-mg per 1-kg of highly purified PALP s.c. Each treatment was performed 9-times on every second day. Each group included 7 animals. The mean values for total weight, tumor weight and body weight (the difference between total and tumor weight) are shown in TABLE 8.

For test [2], the system named is B16 mouse melanoma. Briefly: B16 mouse melanoma model, s.c. CCDTHT (Example 8). It counts as in vivo. As to conditions: for Body weight (total weight minus tumor weight) / Total weight / Tumor weight: CCDTHT 4.5-mg/kg s.c. daily from day 11 until day 22.
Description: as §1, §2
In this model, CCDTHT, a chemically synthesized compound is used to prevent or reverse tumor-induced body weight loss. The B16 mouse tumors were developed as described in Example 3. Two experimental groups each involving five mice were used. In the first group, mice remained untreated during the entire observation period. In the second group, starting on the 11th day after tumor implantation, mice were s.c. administered 4.5-mg/kg CCDTHT; then the treatments were repeated daily until day 22. The mean values for total weight, tumor weight and body weight (the difference between total and tumor weight) are shown in TABLE 5.

Test [3] relates to B16 mouse melanoma. Briefly: B16 mouse melanoma model, s.c. commercial PALP, s.c. plus topical PALP, or TF (Example 4, Experiment 2). It counts as in vivo. The note with it: TF 16-mg/kg s.c.; for Body weight (total weight minus tumor weight) / Total weight / Tumor weight: days 11-18 daily: commercial PALP 60-mg/kg s.c., topical cream 4-mg commercial PALP/g.
Description: as §1, §2
In this model, either highly purified PALP or commercial PALP was subcutaneously injected to reverse body weight loss in the rapidly growing B16 melanoma model. Two separate experiments were performed to validate the effects of highly purified PALP (Experiment 1) and commercial PALP (Experiment 2). For both experiments, the B16 mouse melanoma model was developed as described in Example 3. The data presented in TABLE 1 (for Experiment 1) and TABLE 2 (for Experiment 2) show the changes in total weight, tumor weight, and body weight (total weight minus tumor weight). In each experimental group all mice survived until the conclusion of the experiment.
Experiment 2. In this experiment, the first group of animals remained untreated for the entire observation period. In the second group, from day 11 through day 18 after implantation of tumor pieces, the animals were treated daily with 60-mg/kg of commercial PALP via s.c. administration (seven treatments). In the third group, from day 11 through day 18 after implantation of tumor pieces, the animals were simultaneously administered 60-mg/kg of commercial PALP via s.c injection and treated topically with 150-mg of cream containing 4-mg commercial PALP in 1-g of Vaselinum cholesteratum (seven treatments). Topical treatment involved spreading the cream on both the tumor and surrounding skin area. In the fourth group, from day 11 through day 18 after implantation of tumor pieces, the animals were treated with 16-mg/kg of commercial partially iron-saturated TF via subcutaneous administration (seven treatments). Each group included seven mice.

A further test concerns fibroblast proliferation. Briefly: Fibroblast proliferation in vitro, effect of pre-heating the protein. The class given is cell-based. The protocol: It is reasonable to expect that pre-heating of PALP at 65-75° C. prior to its use may also enhance its anti-cachectic effect. Thus, a step of heat-activation of both commercial and highly purified PALP preparation may be included prior to their applications.
Thus, pre-heating of TF-containing compositions to enhance the effects of other components, such as PALP and AT will unlikely to alter the ability of TF to reduce tumor- and chemotherapy-induced body weight loss.
Therefore, a step of heat-activation of AT may be included during the preparation of active compositions.

The test system of test [4] is MXT mouse mammary tumor. Briefly: Cisplatin-treated MXT mouse mammary tumor model, PALP and TF (Example 9, Experiment 1). The class given is in vivo. As to conditions: co-treated with cisplatin 3-mg/kg i.p.
Description: as §1, §2
Experiment 1. The mouse MXT mammary tumor was developed as described in Example 3. In the first group, animals remained untreated during the whole observation period. In the second group, starting on the 7th day after tumor implantation, mice were intraperitoneally (i.p.) administered 3-mg per 1-kg total weight of cisplatin 7-times every second day. In the third group, starting on the 7th day after tumor implantation, mice were simultaneously administered 3-mg per 1-kg of cisplatin i.p. and 16-mg per 1-kg of purified PALP s.c. In the fourth group, starting on the 7th day after tumor implantation, mice were simultaneously administered 3-mg per 1-kg of cisplatin i.p. and 60-mg per 1-kg of commercial PALP s.c. In the fifth group, starting on the 7th day after tumor implantation, mice were simultaneously administered 3-mg per 1-kg of cisplatin i.p. and 14-mg per 1-kg of commercial TF (T 3309 in the Sigma catalog) s.c. Each treatment was performed 7-times on every second day. Each group included 7 animals. The mean values for total weight, tumor weight and body weight (the difference between total and tumor weight) are shown in TABLE 6.

In test [5] the test system is MXT mouse mammary tumor. Briefly: Cisplatin-treated MXT mouse mammary tumor model, purified PALP, AT, holo-TF, apo-TF (Example 9, Experiment 2). The class given is in vivo. The note with it: 12-mg/kg s.c. with cisplatin 3-mg/kg i.p.
Description: as §1, §2
Experiment 2. The commercial PALP used in this model for Exp. 1 was composed of PALP (˜10%), TF (˜12%), AT (˜30%), albumin (˜35%) and the degradation products of TF (˜13%). […] In this experiment, it was determined whether the other two major proteins, i.e. TF and AT, present in the commercial PALP preparation in addition to PALP, also influence cisplatin-induced loss of body weight or not. The mouse MXT mammary tumor was developed as described in Example 3. In the first group, animals remained untreated during the whole observation period. In the second group, starting on the 7th day after tumor implantation, mice were administered 3-mg per 1-kg of cisplatin i.p. 6-times every second day. In the third group, starting on the 7th day after tumor implantation, mice were simultaneously administered 3-mg per 1-kg of cisplatin i.p. and 12-mg per 1-kg of purified PALP s.c. In the fourth group, starting on the 7th day after tumor implantation, mice were simultaneously administered 3-mg per 1-kg of cisplatin i.p. and 12-mg per 1-kg of highly purified AT s.c. In the fifth group, starting on the 7th day after tumor implantation, mice were simultaneously administered 3-mg per 1-kg of cisplatin i.p. and 12-mg per 1-kg of commercial holo-TF (h-TF, T 0665 in the Sigma catalog) s.c. In the sixth group, starting on the 7th day after tumor implantation, mice were simultaneously administered 3-mg per 1-kg of cisplatin i.p. and 12-mg per 1-kg of commercial apo-TF (a-TF, T 2036 in the Sigma catalog) s.c. Holo-TF contained 1,100-1,600 μg iron per gram protein while apo-TF was essentially iron-free. Each treatment with the proteins was also performed 6-times on every second day simultaneously with the cisplatin treatment. Each group included 7 animals. The mean values for total weight, tumor weight and body weight (the difference between total and tumor weight) are shown in gram in TABLE 7.

Setting [6] is: day 11 after tumor transplantation.
[7] abbreviates: day 14 after tumor transplantation.
The mark [8] stands for this setting: day 16 after tumor transplantation.
Where [9] appears, read: day 18 after tumor transplantation.
The mark [10] stands for this setting: day 21 after tumor transplantation.
The mark [11] stands for this setting: day 23, CCDTHT 4.5-mg/kg s.c. daily.
Where [12] appears, read: day 23 after tumor transplantation.

Consider `CC[N+](C)(CC)CCOCc1ccc2sc3ccccc3c(=O)c2c1.[I-]` [CCDTHT, N,N-diethyl-N-methyl-2-[(9-oxo-9H-thioxanthen-2-yl)methoxy]-ethanaminium iodide], for which the “Effect on cisplatin-induced body weight loss” value with MXT mouse mammary tumor [1] was “effectively prevents cisplatin-induced body weight loss”. Moreover, the “Effect on body weight” value in the test with B16 mouse melanoma [2] (CCDTHT 4.5-mg/kg s.c. daily) is “modest weight gain”. The “Body weight (total weight minus tumor weight)” value was 22.4 g in the test with B16 mouse melanoma [2] (setting [6]); 22.9 g with B16 mouse melanoma [2] (setting [7]); 23.2 g in the test on B16 mouse melanoma [2] (setting [8]); 23.4 g with B16 mouse melanoma [2] (setting [9]); 23.6 g with B16 mouse melanoma [2] (setting [10]); 23.8 g in the test with B16 mouse melanoma [2] (setting [12]). Besides, the Total weight is 23.0 g in the test with B16 mouse melanoma [2] (setting [6]); 23.7 g in the test with B16 mouse melanoma [2] (setting [7]); 24.2 g in the test with B16 mouse melanoma [2] (setting [8]); 24.7 g in the test with B16 mouse melanoma [2] (setting [9]); 25.4 g in the test on B16 mouse melanoma [2] (setting [10]); 25.9 g in the test with B16 mouse melanoma [2] (setting [12]). Also, the Tumor weight is reported as 0.6 g in the test on B16 mouse melanoma [2] (setting [6]); 0.8 g in the test on B16 mouse melanoma [2] (setting [7]); 1.0 g in the test on B16 mouse melanoma [2] (setting [8]); 1.3 g in the test on B16 mouse melanoma [2] (setting [9]); 1.8 g in the test on B16 mouse melanoma [2] (setting [10]); 2.1 g in the test with B16 mouse melanoma [2] (setting [12]). In the test with B16 mouse melanoma [2] (setting [11]), the “Body weight difference to control mice” value is “about 10%”. Moreover, in the test with B16 mouse melanoma [2] (setting [11]), the “Body weight heavier than control mice” value turned out to be 2.6 grams.
On to “TF s.c.: commercial partially iron-saturated human transferrin (Sigma T 3309)”, for which, in the test on B16 mouse melanoma [3] (commercial PALP 60-mg/kg s.c.), the “Effect on body weight loss” value is on record as “stabilized body weights but did not promote weight gain”. For the same compound, the “Body weight (total weight minus tumor weight)” value in the test with B16 mouse melanoma [3] (setting [6]) was found to be 22.4 gram; with B16 mouse melanoma [3] (setting [7]), 23.5 gram; in the test on B16 mouse melanoma [3] (setting [8]) it was 23.5 gram; in the test with B16 mouse melanoma [3] (setting [9]), 23.6 gram; in the test with B16 mouse melanoma [3] (setting [10]), 23.9 gram; in the test on B16 mouse melanoma [3] (setting [12]), 23.9 gram. For the same compound, the Total weight is 22.9 gram in the test with B16 mouse melanoma [3] (setting [6]); 24.2 gram in the test on B16 mouse melanoma [3] (setting [7]); 24.3 gram in the test on B16 mouse melanoma [3] (setting [8]); 25.0 gram with B16 mouse melanoma [3] (setting [9]); 26.1 gram with B16 mouse melanoma [3] (setting [10]); 26.6 gram with B16 mouse melanoma [3] (setting [12]). Also, the Tumor weight was 0.5 gram with B16 mouse melanoma [3] (setting [6]); 0.7 gram in the test on B16 mouse melanoma [3] (setting [7]); 0.8 gram with B16 mouse melanoma [3] (setting [8]); 1.4 gram in the test with B16 mouse melanoma [3] (setting [9]); 2.2 gram in the test with B16 mouse melanoma [3] (setting [10]); 2.7 gram with B16 mouse melanoma [3] (setting [12]). For the same compound, the “Effect of pre-heating on the stimulatory effects on fibroblast proliferation” value with fibroblast proliferation is “not altered by pre-heating it at up to 75 °C for 30 min”. Further, the “Effect on body weight loss induced by the tumor and cisplatin” value with MXT mouse mammary tumor [4] is reported as “partially reversed body weight loss”.
Consider “apo-TF: commercial apo-transferrin (Sigma T 2036), essentially iron-free”, for which the “Effect on cisplatin-induced body weight loss” value with MXT mouse mammary tumor [5] is “partially reversed cisplatin-induced body weight loss”.
On to “holo-TF: commercial holo-transferrin (Sigma T 0665), 1,100-1,600 μg iron per gram protein”, for which the “Effect on cisplatin-induced body weight loss” value in the test with MXT mouse mammary tumor [5] is reported as “partially reversed cisplatin-induced body weight loss”.
